PubChem BioAssay AID2060512 (Molecular Pharmacology Branch, DTP, NCI, 2025)

Test system: 186277-243-T-J2-PDC complex spheroid viability
Assay: Anticancer human tumor 186277-243-T-J2-PDC patient-derived colon adenocarcinoma cell line growth inhibition [GQUAD]
Conditions: for IC50: curve of first compound; for viability, T/C: stronger effect = lower value
Source text: DNA G-quadruplex Stabilizer Agents in Combinations in Complex Spheroids
A high-throughput screen of multi-cell type tumor spheroids was designed to identify active combinations of DNA G-quadruplex stabilizer agents and targeted small molecules. Complex spheroids include a stromal component modeled by human endothelial cells (HUVEC) and fibroblasts modeled by human mesenchymal stem cells (MSCs). The concentration ranges selected for each drug and investigational agent were based upon clinically achievable concentrations if the clinical Cmax of the agent was known.
Compounds. The drugs and investigational agents: pidnarulex (CX-5461; NSC782164), APTO-253 (NSC789042), BRACO-19 (NSC847499), peposertib (NSC802822), ceralasertib (NSC780249), elimusertib (NSC800525), camonsertib (NSC841442), AZD-1390 (NSC803789), olaparib (NSC753686), talazoparib (NSC767125), ART-558 (NSC835418), sotorasib (NSC818433), MRTX-1133 (NSC836407), SN-38 (NSC673596), topotecan (NSC609699), etoposide (NSC141540), doxorubicin (NSC123127), gemcitabine (NSC613327), 5-fluorouracil (NSC19893), paclitaxel (NSC125973), vemurafenib (NSC761431), panobinostat (NSC761190), R-306465 (JNJ-16241199; NSC773264), adavosertib (NSC754352), TP-3654 (NSC805149), carboplatin (NSC241240), KSQ-4279 (NSC840948), and staurosporine (NSC755774) were obtained from the National Cancer Institute (NCI) Developmental Therapeutics Program Chemical Repository (34). The FDA-approved anticancer drug set is available from the NCI Developmental Therapeutics Program. […] The stock solutions were prepared in dimethyl sulfoxide (DMSO, Sigma-Aldrich, St. Louis, MO, cat. D2650) at 800-fold the tested concentration and stored at -70 degrees C prior to their use. All drugs and investigational agents were tested over a range starting from a high concentration at or near the clinical Cmax and decreasing in half-log increments. If the clinical Cmax for an agent had not been determined, the highest concentration tested was 10 microM.
2.3 Cell Culture. All cells were maintained in an incubator at 37 degrees C and 5% CO2 with 95% humidity. The PDC lines were cultured according to standard operating procedures established by the NCI PDMR. All PDCs were thawed and cultured in Matrigel-coated flasks prepared with a working solution of 1X Ham's F-12 nutrient mix, without supplementation (Invitrogen, cat. 11765054), 100 U/mL penicillin-streptomycin (Invitrogen, cat. 15140122), and 2.5% Matrigel (Corning Inc., cat. 354248) for the first three passages. The 857933-349-R-J2-PDC line was cultured in 6C/Colon 1B media, which includes advanced DMEM/F-12 (Thermo Fisher Scientific, cat. 12634028), 10 mM HEPES (Thermo Fisher Scientific, cat. 15630080), 1X GlutaMAX supplement (Thermo Fisher Scientific, cat. 35050061), 0.1 mg/mL primocin (InvivoGen, cat. ant-pm-2), 10% defined fetal bovine serum, heat inactivated (HyClone Laboratories Inc., cat. SH30070.03HI), 50% L-WRN conditioned media (ATCC, cat. CRL-3276), 1.25 mM N-Acetyl-L-cysteine (Sigma-Aldrich, cat. A9165), 10 mM nicotinamide (Sigma-Aldrich, cat. N0636), 1X B-27 supplement (Thermo Fisher Scientific, cat. 17504044), 1X N-2 supplement (Thermo Fisher Scientific, cat. 17502048), 10 microM Y-27632 dihydrochloride (Tocris Bioscience, cat. 1254), and 50 ng/mL human EGF recombinant protein (Thermo Fisher Scientific, cat. PHG0311). The 485176-168-R4-J1-PDC line was cultured in Panc media, which includes all 6C/Colon 1B media components plus 100 ng/mL human FGF-10 (Thermo Fisher Scientific, cat. 100-26), 500 nM SB-431542 (Selleckchem, cat. S1067), and gastrin (Tocris, cat. 3006).
[…]

[1] = second compound 0.0316 µM, first compound 0.0316 µM
[2] = second compound 0.0316 µM, first compound 0.1 µM
[3] = second compound 0.0316 µM, first compound 0.316 µM
[4] = second compound 0.0316 µM, first compound 1 µM
[5] = second compound 0.0316 µM, first compound 3.16 µM
[6] = second compound 0.0316 µM, first compound 10 µM
[7] = second compound 0.1 µM, first compound 0.0316 µM
[8] = second compound 0.1 µM, first compound 0.1 µM
[9] = second compound 0.1 µM, first compound 0.316 µM
[10] = second compound 0.1 µM, first compound 1 µM
[11] = second compound 0.1 µM, first compound 3.16 µM
[12] = second compound 0.1 µM, first compound 10 µM
[13] = second compound 0.316 µM, first compound 0.0316 µM
[14] = second compound 0.316 µM, first compound 0.1 µM
[15] = second compound 0.316 µM, first compound 0.316 µM
[16] = second compound 0.316 µM, first compound 1 µM
[17] = second compound 0.316 µM, first compound 3.16 µM
[18] = second compound 0.316 µM, first compound 10 µM
[19] = second compound 1 µM, first compound 0.0316 µM
[20] = second compound 1 µM, first compound 0.1 µM
[21] = second compound 1 µM, first compound 0.316 µM
[22] = second compound 1 µM, first compound 1 µM
[23] = second compound 1 µM, first compound 3.16 µM
[24] = second compound 1 µM, first compound 10 µM
[25] = second compound 3.16 µM, first compound 0.0316 µM
[26] = second compound 3.16 µM, first compound 0.1 µM
[27] = second compound 3.16 µM, first compound 0.316 µM
[28] = second compound 3.16 µM, first compound 1 µM
[29] = second compound 3.16 µM, first compound 3.16 µM
[30] = second compound 3.16 µM, first compound 10 µM
[31] = second compound 10 µM, first compound 0.0316 µM
[32] = second compound 10 µM, first compound 0.1 µM
[33] = second compound 10 µM, first compound 0.316 µM
[34] = second compound 10 µM, first compound 1 µM
[35] = second compound 10 µM, first compound 3.16 µM
[36] = second compound 10 µM, first compound 10 µM
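Further: spheroids exposed to drugs for 7 days.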
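Wherever viability, T/C is given: 100% = DMSO vehicle control viability.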

CC1COCCN1c1cc(C2(O)CC3CCC(C2)O3)c2cnn(-c3ccn[nH]3)c2n1 (stereo unspecified) + CN(C)c1ccc(Nc2c3ccc(NC(=O)CCN4CCCC4)cc3nc3cc(NC(=O)CCN4CCCC4)ccc23)cc1
IC50 (second compound 0.0316 µM): 32.6 nM
IC50 (second compound 0.1 µM): 33.1 nM
IC50 (second compound 0.316 µM): 34.7 nM
IC50 (second compound 1 µM): < 31.6 nM
IC50 (second compound 3.16 µM): < 31.6 nM
IC50 (second compound 10 µM): < 31.6 nM
viability, T/C [1]: 51.2%
viability, T/C [2]: 8.79%
viability, T/C [3]: 6.01%
viability, T/C [4]: 4%
viability, T/C [5]: 5.01%
viability, T/C [6]: 3.88%
viability, T/C [7]: 51.8%
viability, T/C [8]: 12%
viability, T/C [9]: 7.24%
viability, T/C [10]: 3.82%
viability, T/C [11]: 4.81%
viability, T/C [12]: 3.87%
viability, T/C [13]: 53.7%
viability, T/C [14]: 8.92%
viability, T/C [15]: 4.46%
viability, T/C [16]: 3.99%
viability, T/C [17]: 5.18%
viability, T/C [18]: 3.41%
viability, T/C [19]: 42.9%
viability, T/C [20]: 9.66%
viability, T/C [21]: 5.45%
viability, T/C [22]: 4.14%
viability, T/C [23]: 5.22%
viability, T/C [24]: 3.81%
viability, T/C [25]: 47%
viability, T/C [26]: 12.8%
viability, T/C [27]: 5.73%
viability, T/C [28]: 3.69%
viability, T/C [29]: 4.72%
viability, T/C [30]: 3.34%
viability, T/C [31]: 46.5%
viability, T/C [32]: 11.9%
viability, T/C [33]: 6.88%
viability, T/C [34]: 3%
viability, T/C [35]: 3.63%
viability, T/C [36]: 2.56%

CC1COCCN1c1cc(C2(S(C)(=N)=O)CC2)nc(-c2ccnc3[nH]ccc23)n1 (stereo unspecified) + CN(C)c1ccc(Nc2c3ccc(NC(=O)CCN4CCCC4)cc3nc3cc(NC(=O)CCN4CCCC4)ccc23)cc1
IC50 (second compound 0.0316 µM): 803 nM
IC50 (second compound 0.1 µM): 749 nM
IC50 (second compound 0.316 µM): 1350 nM
IC50 (second compound 1 µM): 972 nM
IC50 (second compound 3.16 µM): 986 nM
IC50 (second compound 10 µM): 840 nM
viability, T/C [1]: 95.5%
viability, T/C [2]: 100%
viability, T/C [3]: 117%
viability, T/C [4]: 37.2%
viability, T/C [5]: 8.85%
viability, T/C [6]: 6.06%
viability, T/C [7]: 105%
viability, T/C [8]: 102%
viability, T/C [9]: 89.4%
viability, T/C [10]: 37%
viability, T/C [11]: 7.6%
viability, T/C [12]: 5.85%
viability, T/C [13]: 85.2%
viability, T/C [14]: 99.5%
viability, T/C [15]: 92.7%
viability, T/C [16]: 65.2%
viability, T/C [17]: 7.48%
viability, T/C [18]: 5.05%
viability, T/C [19]: 91%
viability, T/C [20]: 89.8%
viability, T/C [21]: 96.2%
viability, T/C [22]: 48.9%
viability, T/C [23]: 8.32%
viability, T/C [24]: 5.51%
viability, T/C [25]: 91%
viability, T/C [26]: 103%
viability, T/C [27]: 98.8%
viability, T/C [28]: 49.4%
viability, T/C [29]: 7.66%
viability, T/C [30]: 5.17%
viability, T/C [31]: 85.3%
viability, T/C [32]: 94%
viability, T/C [33]: 110%
viability, T/C [34]: 41.7%
viability, T/C [35]: 9.87%
viability, T/C [36]: 5.6%

COc1ccc([C@@H](O)c2cc(-c3ncnc4cc(N5CCOCC5)ccc34)c(F)cc2Cl)nn1 + CN(C)c1ccc(Nc2c3ccc(NC(=O)CCN4CCCC4)cc3nc3cc(NC(=O)CCN4CCCC4)ccc23)cc1
IC50 (second compound 0.0316 µM): 3940 nM
IC50 (second compound 0.1 µM): 5030 nM
IC50 (second compound 0.316 µM): 4100 nM
IC50 (second compound 1 µM): 4450 nM
IC50 (second compound 3.16 µM): 4330 nM
IC50 (second compound 10 µM): 2310 nM
viability, T/C [1]: 102%
viability, T/C [2]: 102%
viability, T/C [3]: 117%
viability, T/C [4]: 75.9%
viability, T/C [5]: 59.8%
viability, T/C [6]: 26.2%
viability, T/C [7]: 112%
viability, T/C [8]: 96%
viability, T/C [9]: 90.1%
viability, T/C [10]: 85.2%
viability, T/C [11]: 73.3%
viability, T/C [12]: 22.5%
viability, T/C [13]: 95%
viability, T/C [14]: 92.7%
viability, T/C [15]: 104%
viability, T/C [16]: 82.3%
viability, T/C [17]: 57.8%
viability, T/C [18]: 26.3%
viability, T/C [19]: 86.5%
viability, T/C [20]: 93.2%
viability, T/C [21]: 89.2%
viability, T/C [22]: 110%
viability, T/C [23]: 62.8%
viability, T/C [24]: 19.9%
viability, T/C [25]: 98.3%
viability, T/C [26]: 87.5%
viability, T/C [27]: 108%
viability, T/C [28]: 96.4%
viability, T/C [29]: 61.1%
viability, T/C [30]: 20.4%
viability, T/C [31]: 91.3%
viability, T/C [32]: 88.1%
viability, T/C [33]: 111%
viability, T/C [34]: 81.1%
viability, T/C [35]: 37.9%
viability, T/C [36]: 7.76%
